Measurements: US8592421B2, “Cyclic bioisosters of purine system derivatives and a pharmaceutical composition based thereon” (priority 2003, dated 2013)

Tests used:
plasma hemostasis = assay: Partial activated thromboplastin time (PATT) after intravenous administration; type: in vivo, rabbit; settings: for effect on the PATT: doses 15.0, 30.0, 60.0 mg/kg
Description: The static parameters of the blood and plasma coagulation (partial activated thromboplastin time, thrombin time, maximum coagulation activity (test for auto coagulation) were determined using the Behnk Electronic coagulometer (Germany). The operating principle of this instrument is based on the fact that the formed blood clot breaks the contacts of the pulse counter in the flask-pin circuit, said pin permanently oscillating in a vertical plane. The moment of formation of the clot is registered by stopping the stop watch hand.
The measurements were effected at a constant temperature of 37° C. maintained by a temperature control unit.

[1] = Morphine abstinence model: nitrites/nitrates NOX− in blood plasma, liver and brain; type: in vivo, rats Wistar; settings: 20.0 mg/kg intramuscularly; for Nitrites in liver: control 0.260 ± 0.023; for Nitrites in brain: Cortex of cerebrum: control 4.63 ± 0.29; for Nitrites in brain: Mesencephalon: control 5.66 ± 0.19; for Nitrites in brain: Hypothalamus: control 6.57 ± 0.50; for Nitrites in blood plasma: control 18.30 ± 2.14
Description: The experiments were carried out on rats in series of 7 animals on each compound according to the invention. Non-morphinized animal with not administered with compounds according to the invention were used as a control group. […] Then the rats were decapitated, the blood from somnolent arteries was collected in test tubes with solution EDTA as an anticoagulant, centrifuged at 1500 g for 15 minutes at 4° C.
To estimate the intensity of metabolism of nitrogen oxide in rats, quantitative determination of stable metabolites of nitrogen oxide—nitrites and nitrates NOX^− in the blood plasma, supernatanates of the liver and thymus gland, a study was conducted by a spectrometric method, and in the brain supernatanates by a […] method.
(§1) The spectrometric method is based the reaction of nitrites with the Griss reagent (a mixture of 2% solution of sulfanilamide and 0.2% N-(1-naphthyl)ethylene diamine. At the first step the nitrite reacts with sulfanilamide with formation of diazonium salt, and then with the second component to form azo dye with an adsorption maximum at 540 nm. For reduction of nitrates into nitrites, a fermentative method was used with bacterial reductase nitrate (Grisham M. B. et al., 1995). The samples of plasma and supernathant of the liver deproteinizated at 100° C. for 5 minutes incubated for 30 minutes at 37° C. in 50.0 mM of HEPES pH 7.4 in the presence of 0.2 unit/ml of Aspergillus reductase nitrate, 5.0 mkM of FAD and 0.1 mM of NAD-Ph. At the end of the reaction lactate dehydrogenase and pyruvate were added for isolation of NAD-Ph interfering with the Griss reaction. Then the Griss reagent was added and after 10-minute incubation the light absorption of the samples was measured at 540 nm. To amount of NOX^− was calculated using sodium nitrate as a standard.
The fluorometric method is based on calculation of the nitrite level by the intensity fluorescence of 2,3-diaminonaphthotriazole, a product of reaction of 2,3-diaminonaphthalene (DAN) and nitrite in an acidic medium (Misko T. R., Schilling R. J., Salvemini D. et al. “A fluorometric assay for the measurement of nitrite of biological samples”. Anal. Biochem., 1993, v. 214, p. 11-16). The brain supernatants deproteinizated at 100° C. were placed in a nitrite regenerating system containing 0.125 unit/ml of nitrate reductases, 25 mkM NADPh and 25 mkM FAD prepared in a 20-mM Tris-HCl buffer with pH 7.6 and incubated for 30 minutes at 37° C. The lactate dehydrogenase/pyruvate system was used for oxidation of the NADPh. Then 316 mkM of the DAN solution in 0.62 M of hydrochloric acids were added and the mixture was incubated for 10 minutes in darkness.
280 mM of NaOH were added for stabilization of the fluorescence of the formed 2,3-diaminonaphthotriazole. The fluorescence intensity was measured in the spectrofluorimeter Hitachi F-3000 at a wavelength of excitation of 365 nm and an emission of 405 nm. The concentration of NOX^− in the brain was calculated by means of a standard solution of sodium nitrate.

[2] = Morphine abstinence model: thymus condition (mass, nitrites); type: in vivo, rats; settings: for Nitrites in thymus supernatant: control 0.331 ± 0.041; for Thymus mass: control 230 ± 14
Excerpt: as §1
The effect of the compounds according to the invention on the condition of the thymus of the rats was also investigated: a control group, an experimental group of morphinized animals and an experimental group of animals were first morphinized and then injected with the compounds according to the invention. The experiment was carried out similarly to that described above.

[3] = Chronic toxicity of suppositories: biochemical indexes of blood serum; type: in vivo, rats; settings: rat, in vivo;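 note: inbred rats dosed rectally with softened suppositories, controls given matching volumes of sterile medical liquid paraffin, serum sampled one month into a two-month dosing course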
Description: The experiments were conducted on inbred rats.
Two doses of preparations used in the experiments: 50 mg/kg and 500 mg/kg. Before the administration, the suppositories were softened by heating in a glass water bath at a temperature of 38-39° C., the soft mass was collected in tuberculin syringe in a volume of 1 ml, a needle with oliva was attached to the syringe, and the preparatory mass was introduced into the rectum of the animal for a depth of 1.5-2.0 cm. The animals of the control group were administered with sterile medical liquid paraffin in a volume corresponding to the volume of the investigated suppository. A complete course of administration of drugs to the animals was two months. A complex of laboratory diagnostic investigations was carried out one month after the beginning of the administration of the preparation to the animal—in a middle of the course (8 animals), two months after ending the course (8 animals) and three months after ending the recovery period of one month (8 animals). The mass of the body of the rats in the first month of administration of the preparation was determined weekly, and then once in two weeks. On the basis of the dynamics of an index of the mass of the animal body, the volume of preparation being administered was corrected taking into account the test dose.

[4] = 15.0 mg/kg intravenously, after 15 minutes, control 37.0 ± 0.2
[5] = 15.0 mg/kg intravenously, after 30 minutes, control 37.0 ± 0.2
[6] = 15.0 mg/kg intravenously, after 60 minutes, control 37.0 ± 0.2
[7] = 15.0 mg/kg intravenously, after 120 minutes, control 37.0 ± 0.2
[8] = 30.0 mg/kg intravenously, after 15 minutes, control 33.3 ± 0.8
[9] = 30.0 mg/kg intravenously, after 30 minutes, control 33.3 ± 0.8
[10] = 30.0 mg/kg intravenously, after 60 minutes, control 33.3 ± 0.8
[11] = 30.0 mg/kg intravenously, after 120 minutes, control 33.3 ± 0.8
[12] = 60.0 mg/kg intravenously, after 15 minutes, control 32.5 ± 0.3
[13] = 60.0 mg/kg intravenously, after 30 minutes, control 32.5 ± 0.3
[14] = 60.0 mg/kg intravenously, after 60 minutes, control 32.5 ± 0.3
[15] = 60.0 mg/kg intravenously, after 120 minutes, control 32.5 ± 0.3
[16] = Administration of morphine and compound

Row | SMILES | PATT, T (plasma hemostasis; [4]) | PATT, T (plasma hemostasis; [5]) | PATT, T (plasma hemostasis; [6]) | PATT, T (plasma hemostasis; [7]) | PATT, T (plasma hemostasis; [8]) | PATT, T (plasma hemostasis; [9]) | PATT, T (plasma hemostasis; [10]) | PATT, T (plasma hemostasis; [11]) | PATT, T (plasma hemostasis; [12]) | PATT, T (plasma hemostasis; [13]) | PATT, T (plasma hemostasis; [14]) | PATT, T (plasma hemostasis; [15]) | effect on the PATT (plasma hemostasis) | Nitrites in liver ([1]; Control + Compound) | Nitrites in brain: Cortex of cerebrum ([1]; Control + Compound) | Nitrites in brain: Mesencephalon ([1]; Control + Compound) | Nitrites in brain: Hypothalamus ([1]; Control + Compound) | Nitrites in blood plasma ([1]; Control + Compound) | Nitrites in liver ([1]; Control + Morphine + compound) | Nitrites in brain: Cortex of cerebrum ([1]; Control + Morphine + compound) | further results
1 | Nc1cnc2c(=O)n([C@@H]3O[C@H](CO)[C@@H](O)[C@H]3O)[nH]c(=O)c2n1.[Na] [Compound 21, sodium salt of 3-amino-7-(β-D-ribofuranosile)pyrazine[2,3-d]-6H-pyridazine-5,8-dione] | 37.1 ± 0.1 s | 37.2 ± 0.1 s | 36.9 ± 0.1 s | 37.0 ± 0.2 s | 32.8 ± 0.4 s | 32.0 ± 0.1 s | 32.2 ± 0.1 s | 32.1 ± 0.1 s | 32.0 ± 0.4 s | 32.1 ± 0.2 s | 32.0 ± 0.1 s | 32.3 ± 0.2 s | do not affect the PATT |  |  |  |  |  |  |  | 
2 | O=c1[nH][nH]c(=O)c2ncccc12.[Li] [Compound 6, lithium salt of pyrido[2,3-d]-6H-pyridazine-5,8-dione] |  |  |  |  |  |  |  |  |  |  |  |  |  | 0.245 ± 0.010 nmol/mg of protein | 4.59 ± 0.44 nmol/mg of protein | 7.01 ± 0.82 nmol/mg of protein | 6.94 ± 0.67 nmol/mg of protein | 15.83 ± 1.21 mkmol/ml | 0.294 ± 0.02 nmol/mg of protein | 5.12 ± 0.18 nmol/mg of protein | Nitrites in brain: Mesencephalon ([1]; Control + Morphine + compound): 5.76 ± 0.94 nmol/mg of protein; Nitrites in brain: Hypothalamus ([1]; Control + Morphine + compound): 6.72 ± 0.94 nmol/mg of protein; Nitrites in blood plasma ([1]; Control + Morphine + compound): 15.86 ± 1.20 mkmol/ml; Nitrites in thymus supernatant ([2]; Administration of compounds): 0.424 ± 0.04 nmol/mg of protein; Thymus mass ([2]; Administration of compounds): 242 ± 17 mg; Nitrites in thymus supernatant [2, 16]: 0.419 ± 0.02 nmol/mg of protein; Thymus mass [2, 16]: 207 ± 14 mg
3 | Nc1ccnc2c(=O)n([C@@H]3O[C@H](CO)[C@@H](O)[C@H]3O)[nH]c(=O)c12 [Compound 2, 4-amino-7-(β-D-ribofuranosile)pyrido[2,3-d]-6H-pyridazine-5,8-dione] | 37.0 ± 0.1 s | 37.0 ± 0.2 s | 36.9 ± 0.1 s | 37.0 ± 0.3 s | 32.7 ± 0.5 s | 32.0 ± 0.1 s | 32.2 ± 0.1 s | 32.1 ± 0.2 s | 32.3 ± 0.2 s | 32.4 ± 0.1 s | 32.3 ± 0.1 s | 32.4 ± 0.1 s | do not affect the PATT |  |  |  |  |  |  |  | ALT in blood serum ([3]; 50 mg/kg): 10.84 ± 2.02 unit/l; AST in blood serum ([3]; 50 mg/kg): 20.41 ± 3.06 unit/1; Alkalinous phosphatase in blood serum ([3]; 50 mg/kg): 42.12 ± 4.23 unit/l; Bilirubin in blood serum ([3]; 50 mg/kg): 44.38 ± 4.12 mmol/L; Cholesterol in blood serum ([3]; 50 mg/kg): 2.77 ± 0.71 mmol/L; Creatinine in blood serum ([3]; 50 mg/kg): 47.38 ± 3.26 mkmol/l; Glucose in blood serum ([3]; 50 mg/kg): 9.85 ± 0.37 mM; Total protein in blood serum ([3]; 50 mg/kg): 87.34 ± 5.56 g/L; Urea in blood serum ([3]; 50 mg/kg): 11.02 ± 0.73 Mkmol/l; ALT in blood serum ([3]; 500 mg/kg): 11.23 ± 1.70 unit/l; AST in blood serum ([3]; 500 mg/kg): 20.13 ± 2.95 unit/1; Alkalinous phosphatase in blood serum ([3]; 500 mg/kg): 43.4 ± 2.12 unit/l; Bilirubin in blood serum ([3]; 500 mg/kg): 42.56 ± 7.56 mmol/L; Cholesterol in blood serum ([3]; 500 mg/kg): 2.96 ± 0.52 mmol/L; Creatinine in blood serum ([3]; 500 mg/kg): 49.87 ± 8.12 mkmol/l; Glucose in blood serum ([3]; 500 mg/kg): 10.2 ± 0.74 mM; Total protein in blood serum ([3]; 500 mg/kg): 70.84 ± 7.47 g/L; Urea in blood serum ([3]; 500 mg/kg): 11.30 ± 0.80 Mkmol/l
4 | O=c1[nH][nH]c(=O)c2nccnc12.[Li] [Compound 25, lithium salt of pyrazine[2,3-d]-6H-pyridazine-5,8-dione] |  |  |  |  |  |  |  |  |  |  |  |  |  | 0.307 ± 0.012 nmol/mg of protein | 4.47 ± 0.43 nmol/mg of protein | 6.98 ± 1.02 nmol/mg of protein | 6.87 ± 0.80 nmol/mg of protein | 17.10 ± 2.05 mkmol/ml | 0.287 ± 0.01 nmol/mg of protein | 4.91 ± 0.32 nmol/mg of protein | Nitrites in brain: Mesencephalon ([1]; Control + Morphine + compound): 5.91 ± 0.74 nmol/mg of protein; Nitrites in brain: Hypothalamus ([1]; Control + Morphine + compound): 6.67 ± 0.79 nmol/mg of protein; Nitrites in blood plasma ([1]; Control + Morphine + compound): 16.78 ± 2.11 mkmol/ml; Nitrites in thymus supernatant ([2]; Administration of compounds): 0.417 ± 0.02 nmol/mg of protein; Thymus mass ([2]; Administration of compounds): 254 ± 14 mg; Nitrites in thymus supernatant [2, 16]: 0.396 ± 0.02 nmol/mg of protein; Thymus mass [2, 16]: 218 ± 17 mg
